One data set deals with Phytophthora infestans. Kind of data set: microbe, parasite or virus in culture. It is filed as cell-based. Conditions: for inhibition at 0.05 ppm: read-out: Activity (%) 0.05 ppm; for inhibition at 0.1 ppm: read-out: Activity (%) 0.1 ppm; for inhibition at 0.5 ppm: read-out: Activity (%) 0.5 ppm; for inhibition at 1 ppm: read-out: Activity (%) 1 ppm; for inhibition at 5 ppm: read-out: Activity (%) 5 ppm; for inhibition at 10 ppm: read-out: Activity (%) 10 ppm; for inhibition at 50 ppm: read-out: Activity (%) 50 ppm.

The test system of another data set is Venturia inaequalis. In words: microbe, parasite or virus in culture. The class given is cell-based.
The test system of data set [1] is Plasmopara viticola strain PvS. Kind of data set: Grapevine downy mildew, preventive treatment of detached grapevine leaves / leaf discs. The class given is in vivo. Conditions: 2267 ppm, preventive 24 h, 7 dpi.
The subject of a further data set is Zymoseptoria tritici. Kind of data set: microbe, parasite or virus in culture. The conditions noted are these: for inhibition at 0.05 ppm / inhibition at 0.1 ppm / inhibition at 0.5 ppm / inhibition at 1 ppm: Zymoseptoria tritici. It is filed as cell-based.
In data set [2] the test system is Phytophthora infestans strain Pi96. It is filed as in vivo. The conditions noted are these: for Disease Severity Index (%) 3 dpi / Disease Severity Index (%) 7 dpi / Disease Severity Index (%) 5 dpi / Disease Severity Index (%) 10 dpi: preventive 24 h.
The nature of data set [3]: Water solubility as a function of pH. The class given is physicochemical. The conditions noted are these: increases at pH values below 7.0 and above 7.0.

Like-named read-outs stand apart in the source and are kept apart here.

Take `CCCCCCCCCCCCNC(=N)N` [Dodine]: in the data set with Phytophthora infestans, the inhibition at 0.05 ppm stood at 12.5%, the inhibition at 0.1 ppm is 12%, the inhibition at 0.5 ppm amounted to 59.4% and the inhibition at 1 ppm came to 81.9%. Further, in the data set on Phytophthora infestans, the inhibition at 5 ppm is 93.8%, the inhibition at 10 ppm was determined as 95.5% and the inhibition at 50 ppm is 98.9%. Moreover, in the data set on Venturia inaequalis, the inhibition at 0.1 ppm is 83.2%, the inhibition at 0.5 ppm stood at 98.2% and the inhibition at 1 ppm was 97.3%. In data set [1], the “control towards Downy Mildew” value is “full control”. The inhibition at 0.05 ppm in the data set with Zymoseptoria tritici (0.05 ppm) is 5.2%. Also, the inhibition at 0.1 ppm in the data set with Zymoseptoria tritici was determined as 21.4%. For the same compound, the inhibition at 0.5 ppm in the data set on Zymoseptoria tritici (0.5 ppm) turned out to be 101%. Also, in the data set on Zymoseptoria tritici (1 ppm), the inhibition at 1 ppm turned out to be 98.1%.
As for `CCCCCCCCCCCCCCCCCC[S+](C)C.[Cl-]` [ODS-Cl, octadecyl dimethyl sulfonium chloride], in data set [2] (50 ppm), the “Disease Severity Index (%) 3 dpi” value was found to be 8.7% and the “Disease Severity Index (%) 7 dpi” value is recorded as 40.0%. Moreover, in data set [2] (100 ppm), the “Disease Severity Index (%) 3 dpi” value worked out at 5.5%. Also, in data set [2] (500 ppm), the “Disease Severity Index (%) 3 dpi” value turned out to be 0.0%, the “Disease Severity Index (%) 5 dpi” value is on record as 0.0%, the “Disease Severity Index (%) 7 dpi” value is recorded as 0.0% and the “Disease Severity Index (%) 10 dpi” value amounted to 0.0%. In addition, in data set [2] (1000 ppm), the “control of the disease (late blight)” value was “full control”, the “Disease Severity Index (%) 3 dpi” value is on record as 0.0%, the “Disease Severity Index (%) 5 dpi” value stood at 0.0% and the “Disease Severity Index (%) 7 dpi” value was 0.0%. Also, the “Disease Severity Index (%) 10 dpi” value in data set [2] (1000 ppm) is 0.0%. Further, in the data set on Phytophthora infestans, the inhibition at 0.05 ppm came out at 6.2%, the inhibition at 0.1 ppm is 12.6%, the inhibition at 0.5 ppm worked out at 12.5% and the inhibition at 1 ppm amounted to 12.3%. In the data set with Phytophthora infestans, the inhibition at 5 ppm came out at 14.1%, the inhibition at 10 ppm turned out to be 29.3% and the inhibition at 50 ppm was 98.4%. In the data set on Venturia inaequalis, the inhibition at 0.1 ppm is 14.3%, the inhibition at 0.5 ppm amounted to 97.4% and the inhibition at 1 ppm was determined as 97.2%. Moreover, the “Activity (%) 0.1 ppm” value in the data set on Zymoseptoria tritici stood at 8.8%. Besides, the inhibition at 0.05 ppm with Zymoseptoria tritici (0.05 ppm) was 6.5%. Besides, the inhibition at 0.5 ppm in the data set with Zymoseptoria tritici (0.5 ppm) was 11.5%. The inhibition at 1 ppm in the data set with Zymoseptoria tritici (1 ppm) came to 91%.
Regarding `N#Cc1c(Cl)c(Cl)c(Cl)c(C#N)c1Cl` [Chlorothalonil], in the data set on Phytophthora infestans, the inhibition at 0.05 ppm is -11.8%, the inhibition at 0.1 ppm is -5.8%, the inhibition at 0.5 ppm was -2% and the inhibition at 1 ppm came out at 15.3%. Moreover, in the data set on Phytophthora infestans, the inhibition at 5 ppm was determined as 99.2%, the inhibition at 10 ppm was 98.5% and the inhibition at 50 ppm is 100%. Moreover, in the data set on Venturia inaequalis, the inhibition at 0.1 ppm stood at 34.3%, the inhibition at 0.5 ppm came out at 88.8% and the inhibition at 1 ppm was 97.4%. The inhibition at 0.05 ppm in the data set on Zymoseptoria tritici (0.05 ppm) was 4.3%. The inhibition at 0.1 ppm with Zymoseptoria tritici turned out to be 10%. The inhibition at 0.5 ppm with Zymoseptoria tritici (0.5 ppm) came out at 17.9%. For the same compound, in the data set with Zymoseptoria tritici (1 ppm), the inhibition at 1 ppm stood at 54.7%.
With `CCCCCCCCCCCCCCCCCC[S+](C)C.[Cl-]` [octadecyl dimethyl sulfonium chloride], the “water solubility, pH dependency” value in data set [3] is “minimum around pH 7.0”.
For `CCCCCCCCCCCCCCCCCC[S+](C)C.[I-]` [1-5, octadecyl dimethyl sulfonium iodide], in the data set on Zymoseptoria tritici (0.05 ppm), the “Activity (%) 0.05 ppm” value came to 6.4%. For the same compound, the “Activity (%) 0.1 ppm” value in the data set with Zymoseptoria tritici worked out at 2.7%. Besides, the “Activity (%) 0.5 ppm” value with Zymoseptoria tritici (0.5 ppm) came to 11.2%. Further, in the data set on Zymoseptoria tritici (1 ppm), the “Activity (%) 1 ppm” value is given as 92.7%.

The record behind these values is patent publication US20240032533A1 (priority 2020, published 2024).
